Values after ≈ are worked out from the molar mass of the structure shown.
Assays:
AGEs formation = experiment: Inhibition of AGEs formation (bovine serum albumin with fructose/glucose, fluorescence); format: biochemical; details: for IC50 values, AGE (inhibition of AGEs formation): means ± SE, 37 °C, 7 days; for times more active than aminoguanidine in inhibition of AGEs formation: ratio of IC50 values versus aminoguanidine
Method: The inhibitory activity against AGEs formation was measured as described previously. To prepare the AGEs reaction solution, bovine serum albumin (10 mg/mL) dissolved in 50 mM SPB (pH 7.4) was added to 200 mM fructose, 200 mM glucose, and 0.02% NaN3 to prevent the growth of bacteria. The reaction solution (950 μL) was mixed with various concentrations of the samples (50 μL) in 10% (CH3)2SO. After incubation at 37 °C for 7 days, the fluorescence intensity of the reaction solution was analyzed using a spectrofluorometric detector (Bio-Tek Inc., Winooski, VT, USA) with an excitation wavelength of 350 nm and an emission wavelength of 450 nm. Aminoguanidine hydrochloride served as a positive control.

[1] = target: α-glucosidase (EC 3.2.1.20); details: for IC50 values, α–Glucosidase: means ± SE; for times more active than acarbose against α-glucosidase: ratio of IC50 values versus acarbose
[2] = DPPH radical scavenging activity; details: for IC50 values, DPPH: means ± SE; for times more active than ascorbic acid in DPPH radical scavenging: ratio of IC50 values versus ascorbic acid
Method: DPPH radical scavenging activity of each sample for the inhibition of diabetic complications was evaluated as described previously. Methanol solution (100 μL) containing some concentrations of the sample or ascorbic acid (0.2 mg/mL) as a positive control was mixed with 0.2 mM DPPH (100 μL) in wells of a 96-well microplate. Each reaction volume was mixed and allowed to stand in the dark at 28 °C for 30 min. […] The DPPH solution was freshly prepared daily, and was covered and kept in the dark at 4 °C until the measurements were made. Measurements were performed at least in triplicate.

[3] = target: T1, porcine pancreatic α-amylase (EC 3.2.1.1, type VI) (Sus scrofa, UniProt P00690); experiment: α-Amylase inhibition; format: biochemical; details: for IC50: means ± SE; for times more active than acarbose against α-amylase: ratio of IC50 values versus acarbose
T1 construct: purchased Sigma-Aldrich (St. Louis, MO, USA) type VI (catalogue number not given)
T1 sequence (P00690 16-511): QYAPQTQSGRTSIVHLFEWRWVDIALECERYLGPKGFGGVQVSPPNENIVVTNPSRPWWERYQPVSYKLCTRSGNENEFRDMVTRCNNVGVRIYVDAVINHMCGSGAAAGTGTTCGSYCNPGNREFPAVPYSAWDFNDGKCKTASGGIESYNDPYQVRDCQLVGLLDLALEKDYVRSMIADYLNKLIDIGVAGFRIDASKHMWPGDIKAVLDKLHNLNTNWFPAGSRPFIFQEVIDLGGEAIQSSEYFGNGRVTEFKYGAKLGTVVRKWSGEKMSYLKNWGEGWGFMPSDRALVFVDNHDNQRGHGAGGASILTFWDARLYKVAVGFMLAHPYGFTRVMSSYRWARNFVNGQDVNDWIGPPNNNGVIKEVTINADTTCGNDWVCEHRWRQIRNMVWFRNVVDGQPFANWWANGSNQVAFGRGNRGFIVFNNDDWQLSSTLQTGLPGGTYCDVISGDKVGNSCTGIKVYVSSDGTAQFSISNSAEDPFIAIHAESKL
Method: The inhibitory activity of each sample against α-amylase was measured as described previously. Sample (40 μL) dissolved in sodium phosphate buffer (SPB, 20 mM and pH 6.9) with 6 mM NaCl was added to 1.0 U/ml α-amylase (200 μL) in SPB and incubated at 30 °C for 10 min. After 10 min, 400 μL of 0.3% starch solution in SPB was added to each tube. […] Each tube was incubated in boiling water for 20 min and cooled to 27 °C. The reaction was diluted by adding 10 ml distilled water and absorbance at 540 nm was measured using a UV-Vis spectrophotometer. The control contained 20 mM SPB (pH 6.9, 200 μL) instead of α-amylase.

MCF-7 cells = test system: MCF-7 cells; parameters: method as in PMID 18386789; details: by inhibiting Cdk 2 activity; cited from earlier work
[4] = test system: blood glucose levels in mice; experiment: Disaccharide (sucrose) loading test; format: in vivo; details: fasted male mice, 50 mg/kg via stomach tube with sucrose 2.5 g/kg, at 15 and 30 mins, compared to sucrose alone
Method: After an overnight fast, male mice (31-35 g) were used for acute disaccharide loading tests (Fig. 2). […] A control group was loaded with sucrose only. The blood glucose levels were measured using an Accu-Check Performa portable kit, (Roche Diagnostics Korea Co., Ltd., Seoul, Korea).

| Compound | IC50 values, AGE (inhibition of AGEs formation) (AGEs formation) [µg/mL] | IC50 values, α–Glucosidase [1] [µg/mL] | IC50 values, DPPH [2] [µg/mL] | IC50 [3] [µM] | times more active than aminoguanidine in inhibition of AGEs formation (AGEs formation) [times] | times more active than ascorbic acid in DPPH radical scavenging [2] [times] | times more active than acarbose against α-amylase [3] [times] | cell proliferation of MCF-7 cells (MCF-7 cells) | effect on blood glucose levels [4] | times more active than acarbose against α-glucosidase [1] [times] |
| --- | --- | --- | --- | --- | --- | --- | --- | --- | --- | --- |
| CCCCCCCCCCCCCCCCCC(=O)O [1-Heptadecanecarboxylic acid, 1-heptadecanecarboxylic acid] | 34.7 ± 2.6 | 46.2 ± 2.5 (≈ 162 µM) | 15.6 ± 2.2 (≈ 54.8 µM) | 494 | – | – | – | – | – | – |
| CCCCCCCCCCCCCCCC(=O)O [1-Pentadecanecarboxylic acid, 1-pentadecanecarboxylic acid] | 40.6 ± 0.7 | 55.4 ± 3.2 (≈ 216 µM) | 20.8 ± 1.3 (≈ 81.1 µM) | 656 | – | – | – | – | – | – |
| CCCCCCCCCCCCCC(=O)O [1-Tridecanecarboxylic acid, 1-tridecanecarboxylic acid] | 51.2 ± 1.8 | 60.4 ± 1.2 (≈ 264 µM) | 24.5 ± 1.8 (≈ 107 µM) | 986 | – | – | – | – | – | – |
| CC(=O)C=CC1=C(C)CCCC1(C)C [4-(2,6,6-trimethyl-1-cyclohexenyl)-3-buten-2-one] | 48.4 ± 2.3 | […] | 20.5 ± 1.5 (≈ 107 µM) | […] | […] | 1.24 | […] | […] | weak suppressive effect | – |
| CC(=O)C=CC1C(C)=CCCC1(C)C (centres unmarked) [4-(2,6,6-trimethyl-2-cyclohexenyl)-3-buten-2-one] | 50.5 ± 1.8 | 33.2 ± 1.8 (≈ 173 µM) | 23.2 ± 2.5 (≈ 121 µM) | – | – | – | – | – | – | – |
| CCC=CCC=CCC=CCCCCCCCC(=O)O [9,12,15-Octadecatrienoic acid, 9,12,15-octadecatrienoic acid] | 18.2 ± 2.3 | 4.5 ± 2.4 (≈ 16.2 µM) | 7.4 ± 0.9 (≈ 26.6 µM) | 76.1 | 2.95 | 3.45 | 7.47 | – | – | 16.78 |
| CCCCCC=CCC=CCCCCCCCC(=O)O [9,12-Octadecadienoic acid, 9,12-octadecadienoic acid] | 15.4 ± 1.8 | 3.4 ± 1.5 (≈ 12.1 µM) | 6.8 ± 1.2 (≈ 24.2 µM) | 56.3 | 3.54 | 3.75 | 10.02 | – | significant suppressive effect | 22.21 |
| CCCCCCCCC=CCCCCCCCC(=O)O [9-Octadecenoic acid, 9-octadecenoic acid] | 18.8 ± 1.1 | 4.8 ± 0.9 (≈ 17 µM) | 7.6 ± 1.5 (≈ 26.9 µM) | 83.2 | – | – | – | – | – | – |
| N=C(N)NN [Aminoguanidine, reference compound] | 54.5 ± 0.7 | – | – | – | – | – | – | – | – | – |
| O=C1O[C@H]([C@@H](O)CO)C(O)=C1O [Ascorbic acid, reference compound] | – | – | 25.5 ± 0.4 (≈ 145 µM) | – | – | – | – | – | – | – |

Source: paper PMC5374635, “Inhibitory Potential of Constituents from Osmanthus fragrans and Structural Analogues Against Advanced Glycation End Products, α-Amylase, α-Glucosidase, and Oxidative Stress” (Scientific Reports, 2017)
